Source: paper PMC9658513, “Discovery of Compounds That Selectively Repress the Amyloidogenic Processing of the Amyloid Precursor Protein: Design, Synthesis and Pharmacological Evaluation of Diphenylpyrazoles” (International Journal of Molecular Sciences, 2022)
Like-named read-outs stand apart in the source and are kept apart here.

Legend:
Aβ1–40 peptide secretion [1] = assay: Aβ1–40 secretion in cell medium by ELISA; type: cell-based, human
Method: (§1) The final and selected intermediate compounds were evaluated for their ability to modulate APP processing in the SH-SY5Y human neuroblastoma cell line stably expressing the neuronal isoform of human wild-type APP^695 (SY5Y-APP^WT), a well-established model for the study of APP metabolism. APP carboxy-terminal fragments (αCTFs and AICD) levels were assessed by Western blotting (WB). The effect of the reference and test compounds on αCTFs and AICD is expressed as the intensity of corresponding WB bands. The concentration of compounds able to increase 20-times αCTFs and AICD (C20) when compared to the control condition was calculated. Selected compounds were also evaluated for their ability to modulate the secretion of soluble APP fragments (sAPPα and sAPPβ). Aβ1–x levels (Aβ1–40 and Aβ1–42) after treatment with the reference and tested compounds were measured in the cell media by ELISA (Table 1). […] Selected hit compounds were then further evaluated for their ability to decrease the level of N-truncated Aβ peptides (Aβx–38, Aβx–40, and Aβx–42).
(§2) The human neuroblastoma cell line SY5Y-APP^695WT was maintained in Dulbecco’s modified Eagle medium (DMEM, high glucose, pyruvate—GIBCO, Life Technologies, Carlsbad, CA, USA) supplemented with 10% fetal bovine serum, 2 mM L-glutamine, 1 mM non-essential amino acids and penicillin/streptomycin (GIBCO, Life Technologies, Carlsbad, CA, USA) at 37 °C in a 5% CO2 humidified incubator [36]. For compound treatment, a 10 mM stock solution was diluted in freshly supplemented DMEM medium to obtain the precise final concentration of the drug. Cells were plated at a density of 5 × 10^5 cells per well into 12-well plates and cultured with 1 mL supplemented DMEM cell medium for 24 h before compound exposure. The following day, the cell medium was replaced with fresh medium containing the compounds diluted at the indicated concentrations. Cells were treated for 24 h. At the end of the treatments, the cell medium was collected and kept at −80 °C until use, cells were rinsed once with PBS and extracted in 100 µL of Laemmli buffer (10 mM Tris, 20% glycerol, and 2% sodium dodecyl sulfate) using a cell-scraper. The cell lysate was further sonicated (30 pulses of 0.5 s, 60 Hz) for 5 min. Total protein concentration was determined using the Pierce BCA Protein Assay Kit (Thermo Scientific, Waltham, MA, USA) according to the manufacturer’s instructions. Samples were stored at −80 °C until analysis.
(§3) Conditioned media of SY5Y-APP^695WT collected at the end of treatments were centrifuged at 1000× g for 5 min to eliminate cell debris.
(§4) Aβ1–40/Aβ1–42 peptides, Aβx–38/Aβx–40/Aβx–42, and sAPPα/sAPPβ concentrations in pg/mL were determined, respectively, using amyloid-beta 40 and 42 Human ELISA Kits (Invitrogen), the V-PLEX Plus Aβ Peptide Panel 1 (4G8) Kit (Meso Scale Diagnostics, MSD R©, Rockville, MD, USA), and the sAPPα/sAPPβ Multiplex Kit (Meso Scale Diagnostics, MSD R©, Rockville, MD, USA) according to the manufacturer’s instructions.

Aβ1–42 peptide secretion = assay: Aβ1–42 secretion in cell medium by ELISA; type: cell-based, human; details: SY5Y-APP^WT cells, 24 h treatment, mean ± SD of at least three experiments in triplicate
Method: as §1, §2, §3, §4

[2] = test system: αCTF (APP carboxy-terminal fragment); assay: αCTF level by Western blotting in SY5Y-APP^WT cells; type: cell-based, human; details: for EC (20-fold increase): concentration increasing αCTF 20-fold vs untreated control, SY5Y-APP^WT cells, read-out: αCTF (C20)
Method: as §1, §2
(§5) Cell protein lysates were prepared for Western blot analysis by diluting the sample with 1 volume of NuPAGE® lithium dodecyl sulfate (LDS) 2X sample buffer supplemented with 20% NuPAGE® sample reducing agents (Invitrogen). Samples were heated for 10 min at 100 °C. Ten µg of total proteins per well were loaded onto precast 4–12% Criterion XT Bis-Tris polyacrylamide gels (Bio-Rad) and electrophoresis was achieved after applying a tension of 150 V for 90 min using a Criterion electrophoresis cell with the NuPAGE® MOPS SDS running buffer (1X). Proteins were transferred to a nitrocellulose membrane of […] pore size (G&E Healthcare, Madison, WI, USA) using the Criterion blotting system and applying a tension of 100 V for 45 min. To resolve proteins of low molecular weights such as carboxy-terminal fragments of APP, 12% Criterion XT Bis-Tris polyacrylamide gels (Bio-Rad, Hercules, CA, USA) were used, and electrophoresis was performed for 70 min at 150 V in a NuPAGE® MES SDS running buffer (1X). Proteins were transferred to a nitrocellulose membrane of 0.2 µm pore size (G&E Healthcare, Madison, WI, USA) at 100 V for 40 min. Molecular weight calibration was achieved using molecular weight markers (Novex and Magic Marks, Life Technologies, Carlsbad, CA, USA). Protein transfer and quality were determined by a reversible Ponceau Red coloration (0.2% xylidine Ponceau Red and 3% trichloroacetic acid). […]

[3] = test system: AICD (APP intracellular domain); assay: AICD level by Western blotting in SY5Y-APP^WT cells; type: cell-based, human; details: concentration increasing AICD 20-fold vs untreated control, read-out: AICD (C20)
Method: as §1, §2, §5

in vitro = type: cell-based, human; details: human
Method: (§6) Cytotoxicity was measured using 3-(4,5-dimethylthiazol-2-yl)-5-(3-carboxymethoxyphenyl)-2-(4-sulfophenyl)-2H-tetrazolium (MTS) tests. SY5Y-APP^695WT cells were plated in a 96-well plate at 3 × 10^4 cells per well and allowed to attach for 24 h. Cells were then incubated for 72 h with 100 µL of DMEM with 10% SVF containing (or not) the defined concentration of drugs. Cytotoxicity was determined by using the colorimetric MTS assay (Cell Titer 96® Aqueous One Solution Cell Proliferation Assay-MTS Promega, Madison, WI, USA) according to the manufacturer’s instructions. Absorbance was read at 490 nm.

sAPPβ secretion = sAPPβ secretion (MSD sAPPα/sAPPβ Multiplex Kit); type: cell-based, human; details: SY5Y cells, mean ± SD of at least three experiments in triplicate
Method: (§7) A selection of compounds with several selected activities was performed including sAPPα and sAPPβ, which were further explored. […] The decrease in Aβ could result from a decrease in either β- or γ-secretase cleavage or an increase in the α-secretase cleavage of APP. Thus, medium concentrations of sAPPβ and sAPPα, which are the β- and α-secretase extramembrane shed APP fragments, were determined after cell drug treatments.
as §2, §3, §4

sAPPα = sAPPα secretion (MSD sAPPα/sAPPβ Multiplex Kit); type: cell-based, human; details: concentration increasing sAPPα 1.5-fold vs untreated control
Method: as §7
as §2, with “The cell lysate was further sonicated (30 pulses of 0.5 s, 60 Hz) for 5 min.” left out, “Samples were stored at −80 °C until analysis.” left out
as §4

SY5Y-APP^695WT cells [4] = assay: in vitro; type: cell-based, human
Method: as §6

p62/LC3 = assay: Ratio between p62 and LC3 expression levels; type: cell-based, human; details: compound at 3 µM, 24 h, SY5Y-APP^wt cells
Text: Compounds from both series were selected to first determine the potential relationship between the repression of Aβ1–x production and the increased expression of LC3 and p62. […] We then also considered the ratio between the p62 and LC3 expression levels.
Figure 3 Effect of compounds 24, 33, 34, 57, 65, 67, 70, and 71 on the autophagic flux in SY5Y-APP^wt cells. […] Cell lysates were immunolabeled with the following antibodies: p62 (a), LC3 (b), and β-actin. Statistical significance was set at * p < 0.05, ** p < […], *[…], **** p < 0.0001, and ns as not significant.

Aβ1–40 peptide secretion [5] = details: SY5Y cells; cited from earlier work
SY5Y-APP^695WT cells [6] = details: 50% cell death after 72 h treatment; read-out: Cytotox. CC50; cited from earlier work

Row | IC50 (Aβ1–40 peptide secretion [1]; Homo sapiens, Aβ1–40 and Aβ1–42 not distinguished, read-out: IC50 for Aβ secretion (Aβ1–x production)) | IC50 (Aβ1–40 peptide secretion [1]; Homo sapiens, SY5Y-APP^WT cells, 24 h treatment, mean ± SD of at least three experiments in triplicate, read-out: Aβ1–40 IC50) | IC50 (Aβ1–42 peptide secretion; Homo sapiens) | IC50 (sAPPβ secretion; Homo sapiens) | IC50 (Aβ1–40 peptide secretion [1]; SY5Y-APP^WT cells, 24 h treatment, mean ± SD of at least three experiments in triplicate, read-out: Aβ1–40 IC50) | IC50 (Aβ1–42 peptide secretion) | IC50 (sAPPβ secretion) | Molecule | C20 for CTFα and AICD ([2]; CTFα and AICD together) | EC (20-fold increase) ([2]; Homo sapiens) | EC (20-fold increase) ([3]; Homo sapiens) | CC50 at 72 h (in vitro) | sAPPα C1.5 (sAPPα) | EC (20-fold increase) [2] | EC (20-fold increase) [3] | CC50 (SY5Y-APP^695WT cells [4]) | Cytotox. CC50 (SY5Y-APP^695WT cells [4]) | p62/LC3 (p62/LC3) | IC50 (Aβ1–40 peptide secretion [5]) | CC50 (SY5Y-APP^695WT cells [6])
1 | ~1 µM | 1.4 ± 0.1 µM | 1.6 ± 0.1 µM | 2.8 ± 1.1 µM | – | – | – | Cc1cn(-c2cccc(CN(C)CCCN(C)C)c2)nc1-c1ccc(CN(C)CCCN(C)C)cc1 [Compound 69, [3-(Dimethylamino)propyl][(4-{1-[3-({[3-(dimethylamino)propyl](methyl)amino}methyl)phenyl]-4-methyl-1H-pyrazol-3-yl}phenyl)methyl]methylamine] | around 1 µM | 0.6 µM | 1 µM | 2 µM | >5 µM | – | – | – | – | – | – | –
2 | – | – | – | – | 5.7 ± 0.5 µM | 8.3 ± 0.2 µM | 4.5 ± 0.7 µM | N′-[[3-[4-(Dimethylaminomethyl)-3-[4-[3-(dimethylamino)propyl]phenyl] Pyrazol-1-yl]phenyl]methyl]-N,N,N′-trimethyl-propane-1,3-diamine [Compound 34] | – | – | – | – | >10 µM | 1.1 µM | 1.9 µM | > 100 µM | 100 µM | 0.91 | – | –
3 | – | – | – | – | – | – | – | CCN(CC)CCCC(C)Nc1ccnc2cc(Cl)ccc12 (centres unmarked) [CQ, chloroquine, reference compound] | – | – | – | – | – | – | – | – | – | – | 7 µM | 30 µM
